According to PMC9645390, “Amphiphilic stilbene derivatives attenuate the neurotoxicity of soluble Aβ42 oligomers by controlling their interactions with cell membranes” (Chemical Science, 2022):
Read-outs that look alike come from different tables or passages of the source.

Key:
[1] = Log D by octanol-PBS partition assay; format: physicochemical; conditions: pH 7.4, fluorescence readout
Method: In order to confirm that the compounds can also bind to native Aβ species, brain sections collected from 9-month-old 5xFAD transgenic mice have been employed in the fluorescence imaging studies. […] The brain sections were first incubated with our compounds, followed by Congo Red (CR), which is a well-established fluorescent probe that can bind to Aβ plaques.[34] The treated brain sections were then imaged using fluorescence microscope. […] Immunostaining with the CF594-conjugated HJ 3.4 antibody (CF594-HJ3.4) was also performed to confirm that these six compounds can bind to Aβ species specifically in the brain sections (Fig. 5). Moreover, the log D values of the compounds were also measured by octanol-PBS partition assays.[35] […]
The Log D value was measured following a published procedure using slight modifications.4 In general, compounds in 0.5 mL octanol was subjected to partition with 0.5 mL octanol-saturated
PBS. The whole mixture was stirred vigorously for 5 min, and centrifuged at 2,000 rpm for 5 min.
The top octanol layer was separated for later fluorescence measurement. The remaining PBS layer was partitioned with 0.5 mL PBS-saturated octanol, and the second top octanol layer was then separated after vigorous stirring and centrifuging at 2,000 rpm for another 5 min. The two octanol layers’ fluorescence spectra were recorded. The log D value was calculated by the fluorescence intensity ratio at the compounds’ emission wavelength for the above two octanol extractions. […]

Aβ42 fibrils = biological target: T1, Aβ42 fibrils (Homo sapiens, UniProt P05067); assay: Fluorescence saturation binding assay with Aβ42 fibrils; conditions: for binding ratio, Fibrils: from cross point between plateau and initial slope
T1 construct: 1 mg of commercial Aβ42 monomer powder (from GL biochem) was dissolved in 1; purchased GL biochem
T1 sequence (P05067 672-713 limits assumed): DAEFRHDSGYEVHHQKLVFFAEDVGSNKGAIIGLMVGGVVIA
Method: (§1) Fig. 3 Binding constant measurements of ZY-5-OMe (left), ZY-5-MT (middle), ZY-5-DT (right) with Aβ42 fibrils (top), and oligomers (bottom). The measurements were performed in 10 mM phosphate buffered saline (PBS), pH 7.4. The Kd curves were fitted in GraphPad Prism with one site-specific binding model. Equation: Y = Bmax × X/(Kd + X). [Aβ42 fibrils] = [Aβ42 oligomers] = 5 μM.
(§2) Preparation of the Aβ42 Fibrils and Aβ42 Oligomers
(§3) Aβ42 fibrils: 1 mg of commercial Aβ42 monomer powder (from GL biochem) was dissolved in 1
(§4) mL 1,1,1,3,3,3-hexafluoro-2-propanol (HFIP) at room temperature and incubated for 1h. The
(§5) resulting solution was divided equally into two Eppendorf tubes. The solution in each Eppendorf
(§6) tube containing 0.5 mg Aβ42 monomer was then evaporated overnight and dried by vacuum
(§7) centrifuge to generate monomeric films. 100 μM Aβ42 fibrils solution was prepared by dissolving
(§8) the 0.5 mg monomeric films in 1.1 mL PBS buffer (with final DMSO concentration less than 1%)
(§9) and stiring at 37 °C for 3 days.
(§10) Aβ42 oligomers: The 0.5 mg monomeric films were dissolved in 1.1 mL PBS buffer (with final
(§11) DMSO concentration less than 1%) and incubated at 4 °C overnight. The resulting solution was
(§12) then centrifuged at 3000 rpm for 15 mins to remove the insoluble aggregates. The clear supernatant
(§13) was then used for the following experiments. […]
(§14) In Vitro Saturation Binding Studies with Aβ42 Fibrils and Aβ42 Oligomers
(§15) To a solution of increasing concentrations of compounds, a fixed concentration of the generated
(§16) aggregated Aβ42 fibrils or Aβ42 oligomers solutions (5 to 15 μM) was added to yield a total volume
(§17) of 100 μL. Nonspecific binding was determined without compounds. The mixture was incubated
(§18) for 15 min at room temperature. All fluorescence data were obtained on a SpectraMax M2e plate
(§19) reader (Molecular Devices).

Aβ42 oligomers = biological target: T2, Aβ42 oligomers (Homo sapiens, UniProt P05067); assay: Fluorescence saturation binding assay with Aβ42 oligomers; conditions: for Kd / binding ratio, Oligomers: Aβ42 oligomers; for Kd: 10 mM PBS pH 7.4, one site-specific binding model; for binding ratio, Oligomers: from cross point between plateau and initial slope; for binding preference oligomers vs fibrils (from Kd values): lower Kd for Aβ oligomers than Aβ fibrils
T2 construct: 1 mg of commercial Aβ42 monomer powder (from GL biochem) was dissolved in 1; purchased GL biochem
T2 sequence (P05067 672-713 limits assumed): as above
Method: as §1, §2, §3, §4, §5, §6, §7, §8, §9, §10, §11, §12, §13, §14, §15, §16, §17, §18, §19

[2] = Alamar Blue cytotoxicity assay in N2a cells; format: cell-based, mouse; conditions: mouse, N2a (Neuro2A) neuroblastoma cells, up to 10 μM, 40 h, read-out: cell viability
Method: (§20) After confirming these amphiphilic compounds can bind to Aβ species both in vitro and ex vivo, we next investigated whether these compounds could attenuate the toxicity of the Cu–Aβ species, as the Cu^2+ ions were reported to promote the formation of neurotoxic soluble Aβ42 oligomers.[45,46] Firstly, the Alamar Blue cell viability assay was used to measure the cytotoxicity of the compounds at different concentrations ranging from 20 μM to 2 μM in mouse neuroblastoma N2a cells (Fig. 8). […] Considering its high binding affinity to both Aβ fibrils and oligomers, we also further tested its ability to alleviate Cu^2+–Aβ42-induced toxicity. […] The underlying mechanism is unclear, but we propose that these compounds might perform similarly to the toxic oligomers that bind to some cell membrane receptors or insert into the membrane lipids to form porous channels.
(§21) Alamar Blue assay was chosen for the cytotoxicity studies.3 Mouse neuroblastoma Neuro2A (N2A) cells were grown with DMEM/10% FBS in a petri dish at 37 °C in a humidified atmosphere with 5% CO2. Then N2A cells were seeded in a 96-well plate (1.0 × 10^4/well). After 24 h incubation, cell media was changed to DMEM/N-2, and N2A cells were incubated for another 1 h. Then the cells were treated with different concentrations of compounds for 40 h, Alamar Blue solution (10 μL) was added, and the cells were incubated for another 90 min at 37 °C. The fluorescence intensity of each well was measured at 590 nm (excitation wavelength = 560 nm).
(§22) For the Cu2+-Aβ-induced toxicity studies, cells were treated monomeric Aβ42, Cu2+, monomeric Aβ42 + Cu2+, and monomeric Aβ42 + Cu2+ + compounds, monomeric Aβ42 + Cu2+ + copper chelators (Me2HTACN or Me3TACN), respectively. After 40 h incubation, Alamar Blue solution (10 μL) was added, and the cells were incubated for another 90 min at 37 °C. The fluorescence intensity of each well was measured at 590 nm (excitation wavelength = 560 nm). […]

[3] = tested on: Cu2+–Aβ42 species in Neuro2A cells; assay: Cu2+-Aβ42-induced toxicity in Neuro2A cells (Alamar Blue); format: cell-based, mouse; conditions: [Aβ42] = [Cu2+] = 40 μM, compound 10 μM (ZY-12-OMe 5 μM), 40 h
Method: As mentioned above, compounds that are not cytotoxic at 10 μM, including ZY-12-MT, ZY-15-MT, ZY-15-OMe, ZY-17-MT, ZY-5-MT, ZY-5-DT, ZY-5-OMe, and ZY-12-OMe, were chosen for this study. Firstly, during the control studies, we observed that monomeric Aβ42 led to negligible neurotoxicity. Nevertheless, in the presence of both Cu^2+ and monomeric Aβ42, there was a significant cell death, which is likely due to the Cu^2+ associated neurotoxic Aβ42 oligomers formation.[46] […] According to the docking results, ZY-12-MT, ZY-15-OMe, ZY-15-MT, and ZY-5-OMe interact with Aβ42 tetramers mainly through residues His6, Asp7, Tyr10 (via hydrogen bonds), and Tyr10 (via π–π interactions). Some reports have also shown that His6, Asp7, and Tyr10 are potentially involved in the Cu–Aβ interactions, which explains why the compounds are able to attenuate the Cu–Aβ toxicity.[48]
Fig. 9 Cell viability results upon incubation of Neuro2A cells with monomeric Aβ42 in the presence or absence of metal ions and amphiphilic compounds. Concentrations: [Aβ42] = 40 μM, [Cu^2+] = 40 μM, [ZY-12-MT] = [ZY-15-OMe] = [ZY-15-MT] = [ZY-17-MT] = [ZY-5-OMe] = [ZY-5-MT] = [ZY-5-DT] = 10 μM, [ZY-12-OMe] = 5 μM. The error bars represent the standard deviation from five independent experiments, and the statistical analysis was evaluated according to one-way ANOVA (*p < 0.05).
Alamar Blue assay was chosen for the cytotoxicity studies.3 Mouse neuroblastoma Neuro2A (N2A) cells were grown with DMEM/10% FBS in a petri dish at 37 °C in a humidified atmosphere with 5% CO2. Then N2A cells were seeded in a 96-well plate (1.0 × 10^4/well). After 24 h incubation, cell media was changed to DMEM/N-2, and N2A cells were incubated for another 1 h. […]
as §22
10. The effect of copper chelators on Cu2+-Aβ42 neurotoxicity
Figure S8. Cell viability results upon incubation of Neuro2A cells with 10 μM copper chelators (Me2HTACN or Me3TACN) in the presence or absence of 40 μM (Aβ42 + Cu2+). The error bars represent the standard deviation from five independent experiments, and the statistical analysis was evaluated according to one-way ANOVA. […]

[4] = biological target: T3, Aβ plaques in 5xFAD mice brain sections (Homo sapiens, UniProt P05067); assay: Fluorescence imaging of 5xFAD mouse brain sections, colocalization with Congo Red; conditions: 9-month-old 5xFAD brain sections; compound 5 μM, Congo red 2.5 μM
T3 construct: aggregated Aβ species were commonly observed in brain sections from 5xFAD transgenic mice; tissue Jackson Laboratories; host or cells: brain sections of 9-month-old 5xFAD transgenic mice
T3 sequence (P05067 672-713 limits assumed): as above
Method: In order to confirm that the compounds can also bind to native Aβ species, brain sections collected from 9-month-old 5xFAD transgenic mice have been employed in the fluorescence imaging studies. […] The brain sections were first incubated with our compounds, followed by Congo Red (CR), which is a well-established fluorescent probe that can bind to Aβ plaques.[34] The treated brain sections were then imaged using fluorescence microscope. […] Immunostaining with the CF594-conjugated HJ 3.4 antibody (CF594-HJ3.4) was also performed to confirm that these six compounds can bind to Aβ species specifically in the brain sections (Fig. 5). Moreover, the log D values of the compounds were also measured by octanol-PBS partition assays.[35]
Fig. 4 Fluorescence microscopy images of 5xFAD mice brain sections co-incubated with amphiphilic compounds (top), Congo red (middle) and merged images (bottom, along with the Parson's correlation coefficients R). Concentrations: [amphiphilic compounds] = 5 μM, [Congo red] = 2.5 μM; scale bar: 125 μm. TEXT PRINTED IN THE PICTURE: ZY-5-MT: Merged R= 0.84 | ZY-12-DT: Merged R= 0.52 | ZY-12-OMe: Merged R= 0.77 | ZY-15-OMe: Merged R= 0.77 | ZY-17-DT: Merged R= 0.77 | ZY-17-OMe: Merged R= 0.72 […]
Histological Staining of 5×FAD Mice Brain Sections
5xFAD transgenic mice brain sections were blocked with bovine serum albumin (2% BSA in PBS, pH 7.4, 10 min). Then the mice brain sections were transferred to a PBS solution of the compound and incubated for 1 h. After which, the brain sections were transferred to a PBS solution of Congo Red or antibody HJ 3.4 (Professor David Holtzman, 1 μg/ml) and incubated for another 1 h. Then, the brain sections were treated with BSA again (5 min) followed by washing with PBS (3 × 2 min), DI water (3 × 2 min). Finally, the mice brain sections were mounted with non-fluorescent mounting media, and the images were obtained by using EVOS FL Auto 2. ImageJ Fiji program was used for colocalization analysis and determination of the Pearson’s correlation coefficient. The primary

[5] = tested on: mouse neuroblastoma N2a cells; assay: Alamar Blue cytotoxicity assay in N2a cells; format: cell-based; conditions: 2 to 20 μM
Method: as §20, §21, §22

[6] = Aβ42 fibrils, 10 mM PBS pH 7.4, one site-specific binding model, read-out: Kd, Fibrils

SMILES	logD [1]	Kd (Aβ42 fibrils; [6])	binding ratio, Fibrils (Aβ42 fibrils; Aβ42 fibrils)	Kd (Aβ42 oligomers)	binding ratio, Oligomers (Aβ42 oligomers)	Pearson's correlation coefficient R, colocalization with Congo Red [4]	Kd (Aβ42 fibrils; another trial, [Aβ42 fibrils] = 5 μM, PBS pH 7.4 (Fig. S5), read-out: Kd, Aβ42 fibrils, another trial)	selectivity to Aβ oligomers (times higher than that for Aβ fibrils) (Aβ42 oligomers; from Kd values fibrils vs oligomers)	viability at 40 h [2]	effect on Cu2+–Aβ42-induced toxicity (cell viability, in words) [3]	binding preference oligomers vs fibrils (from Kd values) (Aβ42 oligomers)	cytotoxicity (in words) [5]
COc1cc(OC)cc(-c2ccc(/C=C/c3ccc(O)c(CN4CCN(C)CCN(C)CC4)c3)cc2)c1 [ZY-17-MT]	0.81 ± 0.079	0.94 µM	5.5	2.08 µM	2.0	–	–	–	> 80%	–	–	–
CN1CCN(C)CCN(C)CC1 [Me3TACN, 1,4,7-trimethyl-1,4,7-triazacyclononane, reference compound]	–	–	–	–	–	–	–	–	–	not able to alleviate the neurotoxicity	–	–
CN1CCNCCN(C)CC1 [Me2HTACN, 1,4-dimethyl-1,4,7-triazacyclononane, reference compound]	–	–	–	–	–	–	–	–	–	not able to alleviate the neurotoxicity	–	–

Second part, led by results:

logD [1]	Kd (Aβ42 fibrils; [6])	binding ratio, Fibrils (Aβ42 fibrils; Aβ42 fibrils)	Kd (Aβ42 oligomers)	binding ratio, Oligomers (Aβ42 oligomers)	Pearson's correlation coefficient R, colocalization with Congo Red [4]	Kd (Aβ42 fibrils; another trial, [Aβ42 fibrils] = 5 μM, PBS pH 7.4 (Fig. S5), read-out: Kd, Aβ42 fibrils, another trial)	selectivity to Aβ oligomers (times higher than that for Aβ fibrils) (Aβ42 oligomers; from Kd values fibrils vs oligomers)	SMILES	viability at 40 h [2]	effect on Cu2+–Aβ42-induced toxicity (cell viability, in words) [3]	binding preference oligomers vs fibrils (from Kd values) (Aβ42 oligomers)	cytotoxicity (in words) [5]
1.16 ± 0.026	1.27 µM	2.9	4.55 µM	1.2	–	–	–	CN1CCN(C)CCN(Cc2cc(/C=C/c3ccc(-c4ccc(C=O)cc4)s3)cc(CN3CCN(C)CCN(C)CC3)c2O)CC1 [ZY-15-DT]	–	–	–	–
1.13 ± 0.045	1.38 µM	3.5	0.67 µM	3.7	0.52	–	–	CN1CCN(C)CCN(Cc2cc(-c3ccc(/C=C/c4ccc(N(C)C)cc4)s3)cc(CN3CCN(C)CCN(C)CC3)c2O)CC1 [ZY-12-DT]	–	–	higher binding affinity to oligomers over fibrils	higher cytotoxicity than others
1.03 ± 0.122	1.67 µM	1.6	2.09 µM	1.7	–	–	–	CN1CCN(C)CCN(Cc2cc(/C=C/c3ccc(-c4ccc(N(C)C)cc4)s3)cc(CN3CCN(C)CCN(C)CC3)c2O)CC1 [ZY-5-DT]	> 80%	–	–	–
0.997 ± 0.031	1.82 µM	2.1	0.46 µM	4.9	0.84	1.43 µM	3.9 times	CN1CCN(C)CCN(Cc2cc(/C=C/c3ccc(-c4ccc(N(C)C)cc4)s3)ccc2O)CC1 [ZY-5-MT]	> 80%	–	higher binding affinity to oligomers over fibrils	–
